The target in the first test is PDE4B (Homo sapiens, UniProt Q07343). Briefly: Scintillation Proximity Assay (SPA) of PDE4B enzyme activity ([H3]-cAMP cleavage). It is filed as biochemical. The settings on record: test substance 1 μM; one-hour incubation of [H3]-cAMP with PDE4B enzyme at 30° C. In short, it runs like this: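 Percent inhibition at 1 μM compound, measured against an uninhibited reaction. PDE4B hydrolysed tritiated cAMP for one hour at 30 °C, then scintillator beads were added to capture [H3]-5′-AMP. Light events were counted after 45 min bead settling.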
PDE4B, sequence (Q07343 whole entry, species assumed): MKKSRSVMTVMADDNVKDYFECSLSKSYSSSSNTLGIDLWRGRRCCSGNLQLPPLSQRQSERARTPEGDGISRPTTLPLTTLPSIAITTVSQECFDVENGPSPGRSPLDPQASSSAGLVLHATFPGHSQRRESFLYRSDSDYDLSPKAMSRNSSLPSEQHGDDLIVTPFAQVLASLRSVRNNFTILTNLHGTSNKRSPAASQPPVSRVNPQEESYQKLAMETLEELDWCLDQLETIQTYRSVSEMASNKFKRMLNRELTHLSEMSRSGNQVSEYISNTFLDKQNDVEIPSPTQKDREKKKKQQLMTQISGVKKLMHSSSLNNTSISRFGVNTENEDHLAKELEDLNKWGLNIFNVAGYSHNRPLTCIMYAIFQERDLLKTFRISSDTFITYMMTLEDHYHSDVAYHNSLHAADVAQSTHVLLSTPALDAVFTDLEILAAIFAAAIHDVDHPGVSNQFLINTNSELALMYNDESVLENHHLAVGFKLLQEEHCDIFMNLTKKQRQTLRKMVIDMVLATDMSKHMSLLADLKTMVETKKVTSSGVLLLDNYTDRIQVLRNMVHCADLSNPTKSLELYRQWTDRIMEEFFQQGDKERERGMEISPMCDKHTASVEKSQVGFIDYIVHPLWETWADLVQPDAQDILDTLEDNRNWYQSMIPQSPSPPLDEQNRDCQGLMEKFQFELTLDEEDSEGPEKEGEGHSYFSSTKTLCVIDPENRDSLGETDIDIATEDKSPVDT
A general note: SPA uses beads or plates that emit light when radiolabelled molecules are held near them.
`CN1C[C@@H](Nc2nc(N3CCC(O)(c4cc(F)cc(F)c4)CC3)nc3c2[S+]([O-])CC3)CCC1=O` (stereo partly shown) [Example 47] registered an inhibition at 1 µM of 97%. Still for that read-out and setting: the value for `[O-][S+]1CCc2nc(N3CCC(c4noc5cc(F)ccc45)CC3)nc(NC3(CO)CC3)c21` (stereo not shown) [Example 105] was 95%; that for `COc1ccc(C2CCN(c3nc4c(c(NC5CCOCC5)n3)[S+]([O-])CC4)CC2)cc1` (stereo not shown) [Example 117] was 94%; that for `[O-][S+]1CCc2nc(N3CCC4(CC3)OCc3ccccc34)nc(NC3(CO)CC3)c21` (stereo not shown) [Example 109] was 75%. In turn, `CN1C[C@@H](Nc2nc(N3CCC(c4cccc(Cl)c4)CC3)nc3c2[S+]([O-])CC3)CCC1=O` (stereo partly shown) [Example 54] displayed an inhibition at 1 µM of 97%.

Still in this test, the particulars now being: test substance 1 μM; one-hour incubation with [H3]-cAMP at 30° C.
In turn, `Cc1cn(C)nc1CN(C)C(=O)c1ccc(OC2CCN(c3nc4c(c(NC5CCOCC5)n3)[S+]([O-])CC4)CC2)cc1` (stereo not shown) [Example 239] showed an inhibition at 1 µM of 94%. For the compound `[O-][S+]1CCc2nc(N3CCC(c4cc(-c5cccs5)[nH]n4)CC3)nc(Nc3cccc(F)c3)c21` (stereo not shown) [Example 287], the inhibition at 1 µM is 89%.

As a reminder, the inhibition is how much of the control response was suppressed. Read a low inhibition as little suppression.
